# From patent publication US12203089B2, “Plants having increased tolerance to herbicides” (BASF SE, priority 2015, dated 2025)
# Key:
# Type in all cases: in vivo
# [1] = test system: Brassica napus expressing BnaAnng01240D (SEQ ID 20) variant S1041L; experiment: 6-well plate injury test, T1 seeds on vermiculite; conditions: 7 days after treatment
# Method: (§1) Transgenic Brassica napus plants are assayed for improved tolerance to azine herbicides like e. g. 6-cyclopentyl-N4-(2,3,4,5,6-pentafluorophenyl)-1,3,5-triazine-2,4-diamine in 6-well plates. Therefore, 5-6 T1 seeds are sown on vermiculite and watered with half-strength murashige skoog nutrient solution, pH 5.8 (Murashige and Skoog (1962) Physiologia Plantarum 15: 473-497). Compounds are dissolved in dimethylsulfoxid (DMSO) and added to the medium (final DMSO concentration 0.1%). Multi well plates are incubated in a growth chamber at 22° C., 75% relative humidity and 110 μmol Phot*m^−2*s^−1 with 14: 10 h light: dark photoperiod. Growth inhibition is evaluated seven to ten days after seeding in comparison to wild type plants. Plant injury is rated on a scale of 0% to 100%, 0% being no injury and 100% being complete death.
# Brassica napus wildtype = experiment: 6-well plate injury test, seeds on vermiculite; conditions: 7 days after treatment
# Method: as §1
# [2] = test system: Arabidopsis thaliana expressing AtCesA1_P1010L_G1013R (SEQ ID 1); experiment: 48-well plate growth inhibition, T2 seeds, tolerance factor; conditions: based on IC50 values of growth inhibition, seven to ten days after seeding
# Method: (§2) Transgenic Arabidopsis thaliana plants (T2) are assayed for improved tolerance to azine herbicides like e. g. 6-cyclopentyl-N4-(2,3,4,5,6-pentafluorophenyl)-1,3,5-triazine-2,4-diamine in 48-well plates. Therefore, T2 seeds are surface sterilized by stirring for 5 min in ethanol+water (70+30 by volume), rinsing one time with ethanol+water (70+30 by volume) and two times with sterile, deionized water. The seeds are resuspended in 0.1% agar dissolved in water (w/v) Four to five seeds per well are plated on solid nutrient medium consisting of half-strength murashige skoog nutrient solution, pH 5.8 (Murashige and Skoog (1962) Physiologia Plantarum 15: 473-497). Compounds are dissolved in dimethylsulfoxid (DMSO) and added to the medium prior solidification (final DMSO concentration 0.1%). Multi well plates are incubated in a growth chamber at 22° C., 75% relative humidity and 110 μmol Phot*m^−2*s^−1 with 14:10 h light:dark photoperiod. Growth inhibition is evaluated seven to ten days after seeding in comparison to wild type plants. Tolerance factors are calculated based on IC50 values of growth inhibition of transformed versus non-transformed Arabidopsis plants.
# [3] = test system: Arabidopsis thaliana expressing AtCesA1_G1009D_G1013R (SEQ ID 1); experiment: as above; conditions: based on IC50 values of growth inhibition, seven to ten days after seeding
# Method: as §2
# [4] = test system: Arabidopsis thaliana expressing AtCesA1_wt (SEQ ID 1); experiment: as above; conditions: based on IC50 values of growth inhibition, seven to ten days after seeding
# Method: as §2
# [5] = test system: Arabidopsis thaliana expressing AtCesA3_S983F_S1037F (SEQ ID 3); experiment: as above; conditions: based on IC50 values of growth inhibition, seven to ten days after seeding
# Method: as §2
# [6] = test system: Arabidopsis thaliana expressing AtCesA3_S983F_S1040L (SEQ ID 3); experiment: as above; conditions: based on IC50 values of growth inhibition, seven to ten days after seeding
# Method: as §2
# [7] = test system: Arabidopsis thaliana expressing AtCesA3_wt (SEQ ID 3); experiment: as above; conditions: based on IC50 values of growth inhibition, seven to ten days after seeding
# Method: as §2
smiles,measurement,setting,value
"NC(=O)c1nc(-c2ccccc2)n(-c2ccc(Cl)c(COCC(F)(F)C(F)(F)F)c2)n1 [1-[4-chloro-3-(2,2,3,3,3-pentafluoropropoxymethyl)phenyl]-5-phenyl-1,2,4-triazole-3-carboxamide, reference compound]",average phytotox value,"[1]; BnaAnng01240D S1041L event 1, 10^-4M",95%
same,average phytotox value,"[1]; BnaAnng01240D S1041L event 1, 10^-5M",85%
same,average phytotox value,"[1]; BnaAnng01240D S1041L event 1, 10^-6M",80%
same,average phytotox value,"[1]; BnaAnng01240D S1041L event 1, 10^-7M",10%
same,average phytotox value,"[1]; BnaAnng01240D S1041L event 1, 10^-8M",0%
same,average phytotox value,"[1]; BnaAnng01240D S1041L event 2, 10^-4M",90%
same,average phytotox value,"[1]; BnaAnng01240D S1041L event 2, 10^-5M",90%
same,average phytotox value,"[1]; BnaAnng01240D S1041L event 2, 10^-6M",90%
same,average phytotox value,"[1]; BnaAnng01240D S1041L event 2, 10^-7M",0%
same,average phytotox value,"[1]; BnaAnng01240D S1041L event 2, 10^-8M",0%
same,average phytotox value,Brassica napus wildtype; 10^-4M,96%
same,average phytotox value,Brassica napus wildtype; 10^-5M,93%
same,average phytotox value,Brassica napus wildtype; 10^-6M,84%
same,average phytotox value,Brassica napus wildtype; 10^-7M,41%
same,average phytotox value,Brassica napus wildtype; 10^-8M,4%
same,Relative tolerance rate as compared to non-transgenic Arabidopsis plants (non-transgenic = 1.0),[2],400
"Cc1cccc(-n2nc(C(N)=O)nc2-c2ccccc2)c1 [1-(m-tolyl)-5-phenyl-1,2,4-triazole-3-carboxamide, reference compound]",Relative tolerance rate as compared to non-transgenic Arabidopsis plants (non-transgenic = 1.0),[3],25
same,Relative tolerance rate as compared to non-transgenic Arabidopsis plants (non-transgenic = 1.0),[4],3
same,Relative tolerance rate as compared to non-transgenic Arabidopsis plants (non-transgenic = 1.0),[5],80
same,Relative tolerance rate as compared to non-transgenic Arabidopsis plants (non-transgenic = 1.0),[6],100
same,Relative tolerance rate as compared to non-transgenic Arabidopsis plants (non-transgenic = 1.0),[7],4
